Data published in patent publication US20160227778A1, “SEED DRESSING FOR CONTROLLING PHYTOPATHOGENIC FUNGI” (BAYER INTELLECTUAL PROPERTY GMBH, priority 2004, published 2016).

What was measured:
Type in all cases: in vivo
Rhizoctonia solani [1] = assay: Rhizoctonia solani test (cotton)/seed treatment; details: dry seed dressing, application rate 50 g/100 kg of seed, evaluated after 7-8 days, method of Abbot
Protocol: Rhizoctonia solani Test (Cotton)/Seed Treatment The active compounds are applied as dry seed dressing. This is prepared by extending the active compounds in question with ground minerals to give a finely pulverulent mixture which ensures uniform distribution on the seed surface. To dress the seed, the seed together with the seed dressing is shaken for 3 minutes in a closed glass bottle. 2×50 seed corns are sown in standardized soil in seed trays. Perlite infected with Rhizoctonia solani (5 ml/seed tray) is scattered between the seed and covered with Lecaton, and the seeds are then cultivated in a greenhouse at a temperature of about 22° C. and 15 hours of light per day. After 7-8 days, all the emerged and diseased plants are evaluated. The effect is calculated by the method of Abbot. 0% means an efficacy which corresponds to that of the control, whereas an efficacy of 100% means that no infection is observed.

Pyrenophora graminea = Pyrenophora graminea test (barley)/seed treatment/outdoor trial; details: summer barley, infected seed, outdoor trial, application rate 10 g/100 kg of seed, evaluated at begin of heading
Protocol: Pyrenophora graminea Test (Barley)/Seed Treatment/Outdoor Trial
Cereal species: Summer barley Plot size: 2 m^2 Amount of seed per plot: 40 g Number of repetitions: 3 Development stage at the time of evaluation: Begin of heading
The active compounds are applied as a commercial formulation.
For dressing, the preparation is initially charged in a dressing beaker and placed on a dressing shaker. The infected seed is added and shaken for about 2-3 min, until homogenization is achieved.
After preparing the soil in a customary manner, outdoor sowing is carried out at a time which favours infection by the disease.
Evaluation is carried out at a time when all the disease symptoms are clearly present. 0% means an efficacy which corresponds to that of the control, whereas an efficacy of 100% means that no infection is observed.

Rhizoctonia solani [2] = assay: Rhizoctonia solani test (rice)/seed treatment; details: rice (cultivar Koshihikari), seed dressing, application rate 200 g/100 kg of seed, evaluated seven days after inoculation
Protocol: Rhizoctonia solani Test (Rice)/Seed Treatment Rice seed (cultivar Koshihikari) is soaked at 15° C. in distilled water for 10 days, transferred into fresh water and, whilst being ventilated, soaked at 32° C. for 1 day. The seed is then dried at room temperature for a number of hours. 7.6 mg of the test substance are dissolved in 200 μl of acetone in a test vessel, an aliquot of seed (corresponding to 3.8 g of dry seed) is added, the samples mixed and the acetone is aspirated. The seed is sown on soil in a plastic vessel having a diameter of 7.5 cm and cultivated in an incubator at 32° C. with high atmospheric humidity in the dark for 3 days. The seedlings are then cultivated in a greenhouse at on average 21° C. for 2 weeks. In each case 5 seedlings are transferred into 5 plastic vessels having a diameter of 12 cm and cultivated in a greenhouse at on average 25° C. for 5-6 weeks. Mycelia of Rhizoctonia solani which had been grown on sterile barley corns are placed at the foot of the rice plant (5 cm from the soil surface) and incubated in a glass chamber with high atmospheric humidity at on average 27° C. Seven days after the inoculation, the degree of infection is evaluated and the efficacy is calculated. [table]

Ustilago nuda = Ustilago nuda test (barley)/seed treatment/outdoor trial; details: summer barley, infected seed, outdoor trial, application rate 10 g/100 kg of seed, evaluated at begin to middle of blossom
Protocol: Ustilago nuda Test (Barley)/Seed Treatment/Outdoor Trial Cereal species: Summer barley Amount of seed per plot: 40 g Plot size: 2 m^2 Number of repetitions: 3 Development stage: Begin to middle of blossom The active compounds are applied as a commercial formulation. For dressing, the preparation is initially charged in a dressing beaker and placed on a dressing shaker. The infected seed is added and shaken for about 2-3 min, until homogenization is achieved. After preparing the soil in a customary manner, outdoor sowing is carried out at a time which favours infection by the disease. Evaluation is carried out at a time when all the disease symptoms are clearly present. 0% means an efficacy which corresponds to that of the control, whereas an efficacy of 100% means that no infection is observed.

Cc1nn(C)c(F)c1C(=O)Nc1ccccc1C(C)CC(C)C (stereo not shown) [drawing 46]
Efficacy in % (Rhizoctonia solani [1]): 100%

CC(C)CC(C)c1sccc1NC(=O)c1cn(C)nc1C(F)(F)F (stereo not shown) [drawing 47]
Efficacy in % (Rhizoctonia solani [1]): 100%

Cc1nn(C)c(F)c1C(=O)Nc1ccccc1C(C)CC(C)C (stereo not shown) [drawing 48]
Efficacy in % (Pyrenophora graminea): 97%

CC(C)CC(C)c1sccc1NC(=O)c1cn(C)nc1C(F)(F)F (stereo not shown) [drawing 49]
Efficacy in % (Pyrenophora graminea): 97%

Cc1nn(C)c(F)c1C(=O)Nc1ccccc1C(C)CC(C)C (stereo not shown) [drawing 50]
Efficacy in % (Rhizoctonia solani [2]): 91%

Cc1nn(C)c(F)c1C(=O)Nc1ccccc1C(C)CC(C)C (stereo not shown) [drawing 51]
Efficacy in % (Ustilago nuda): 100%

CC(C)CC(C)c1sccc1NC(=O)c1cn(C)nc1C(F)(F)F (stereo not shown) [drawing 52]
Efficacy in % (Ustilago nuda): 99%
